The results in this text go back to patent publication US5670138A, “Mouth-care products” (Sara Lee/DE N.V., priority 1994, dated 1997).

In series [1] the test system is acid phosphatase and pyrophosphatase. In words: Inhibition of the enzymatic hydrolysis of pyrophosphate. The series is classed as biochemical. The note with it: 480 ppm pyrophosphate, tris buffer pH=7. The procedure: To a solution, 3 ml, containing 480 ppm of pyrophosphate, various polymers, as defined in the table, optionally in combination with fluoride, and tris buffer (pH=7), 6*10^-2 U acid phosphatase and 4*10^-2 U pyrophosphatase ware added. The enzymatic hydrolysis of pyrophosphatase was determined by the withdrawal of 0.5 ml samples and measuring the orthophosphate concentration (V/MO complex).

Series [2] can be described thus: Triclosan concentration in supernatant with polymer. The note with it: 3000 ppm triclosan, no polymer. The procedure:
Polymer and 3000 ppm bactericide (Bromochlorophene (BCP) or triclosan) were solved in distilled water at pH=12.5 (NaOH). […] The bactericide concentration was determined at pH 8, 7 or 6 in the supernatant solution by UV/VIS at pH=12.5 and 37° C.

With `[F-].[Na+]` [NaF, sodium fluoride], in series [1], the “ppm orthophosphate after 60 min” value came to 1.8 ppm, the “ppm orthophosphate after 120 min” value came out at 3.9 ppm and the “ppm orthophosphate after 240 min” value was found to be 9.6 ppm.

As for `Oc1cc(Cl)ccc1Oc1ccc(Cl)cc1Cl` [triclosan, 5-chloro-2-(2,4-dichlorophenoxy)phenol], in series [2], the “ppm triclosan in supernatant at pH 6” value came to 7 ± 3 ppm, the “ppm triclosan in supernatant at pH 7” value is recorded as 15 ± 1 ppm and the “ppm triclosan in supernatant at pH 8” value worked out at 30 ± 2 ppm.
